“And” between values parts separate entries of the source, which are not always exact repeats. Identical values can stand only once. Like-named read-outs stand apart in the source and are kept apart here.
How the values were obtained:
primary human VSMCs [1] = experiment: VSMC viability (MTS) in high-CaP medium; assay type: cell-based
[2] = VSMC viability (MTS) in high-CaP medium; assay type: cell-based, human; conditions: human, read-out: VSMC viability (MTS), % of medium control
primary human VSMCs [3] = experiment: VSMC viability (MTS) in CPP2-supplemented medium; assay type: cell-based
Description: (§1) Macrophage accumulation and inflammation coincide with the initial phase of calcification. To this end, VSMCs and THP-1-derived macrophages were exposed to CPP2-supplemented medium. CPP2 prepared from human serum as described previously[61] (Supplementary Figs. 6 and 7), induced a pronounced VSMC monolayer calcification after 48 h, which was decreased by (OEG2)2-IP4 in a dose-dependent fashion, and the effect became significant at 10 µM (Fig. 3e). […] Both H2O2 (proxy for oxidative stress) and tumor necrosis factor-alpha (TNF-α) (proxy for inflammatory response) levels were assayed in the VSMC culture supernatants subsequent to CPP2 treatment with and without compounds[30]. However, no increase in H2O2 nor TNF-α compared to control could be detected in either assay. For the CPP-induced VSMC calcification assay (Fig. 3e) a roughly 10-fold higher concentration of (OEG2)2-IP4 was necessary to achieve similar activity as in the CaP-induced VSMC calcification assay (Fig. 3b). […] In the CaP assay, low inhibitor concentration may be sufficient to inhibit crystal nucleation, whereas for the CPP assay higher inhibitor concentrations may be needed to achieve sufficient particle stabilization by chemisorption of inhibitor onto CPPs. Similar results have been reported for hydrogen sulfide in the context of VC[62],[64]. […] An increase in the TNFα levels in the cell culture supernatants was not observed for (OEG2)2-IP4 with (Fig. 3h) and without (Supplementary Fig. 10) combined CPP2 treatment.
(§2) Cell viability was assessed using the MTS assay (CellTiter 96® Aqueous One Solution Cell Proliferation Assay, G3580; Promega, Madison, WI, USA) according to the manufacturer’s instructions. Assays using combined treatment of CPPs or CaP and test compounds were performed in 24-well plates using 20,000 cells per well and assays using test compounds only were performed in a 96-well plate format with a seeding density of 10,000 (VSMC) or 50,000 (THP-1) cells per well, respectively. For controls, cells were treated with respective complete medium only and results were calculated as % of control.

[4] = VSMC viability (MTS) in CPP2-supplemented medium; assay type: cell-based, human; conditions: human, read-out: VSMC viability (MTS), % of medium control
Description: as §1, §2

CPP2 = experiment: Competitive 18F-NaF binding assay on CPPs; design: species or system human; conditions: for 18F-NaF percentage binding to CPP2: listed as INS-3001
Description: A ^18F-NaF-based competitive binding assay was developed to indirectly assess the inhibitor affinity (IC50) to CPPs. The uptake mechanism of ^18F-NaF, a marker of micro-calcification activity by chemisorption onto hydroxyapatite crystals, is contingent on the rapid exchange of hydroxyl (OH^−) groups present on the hydroxyapatite surface (Ca5(PO4)3(OH)) by ^18F^− to form fluoroapatite (Ca5(PO4)3^18F)[34],[54].
Triplicate aliquots of CPP2s (20 µg Ca/mL) in 100 μL assay buffer (100 mM HBS, pH 7.4 (RT)) were incubated for 1 h at RT in the presence of increasing concentrations of compounds in 50 μL Milli-Q water and ^18F-NaF (1 nM) in 50 μL assay buffer, resulting in a total incubation volume of 200 μL (^18F-NaF was prepared using a FASTlab synthesizer (GE Healthcare, Little Chalfont, UK) and commercially available ^18F-NaF cassettes (GE Healthcare)). Maximum radiotracer binding was determined by incubating CPP2s with ^18F-NaF (1 nM) only. The reaction was terminated by rapid filtration through a SOLAμ™ SPE plate (HRP 2 mg/mL 96-well plate, 22 μm; Thermo Fisher Scientific). SPE individual column matrices were washed twice rapidly in assay buffer and radioactivity on the filters determined by an automatic gamma counter (Wizard2 Gamma Counter, Perkin Elmer, Waltham, MA, USA). […] IC50 is the concentration of […] that gives a response half way between the bottom and top parts of the curve. ^18F-NaF micro-PET/computed tomography (micro-PET/CT) was employed for ex vivo analysis of (OEG2)2-IP4’s engagement to target calcified human tissue explants, as described previously. […] Following incubations, samples were washed twice in 0.1 M PBS (1 min per wash) and mounted on a Petri dish for micro-PET/CT imaging (nanoPET/CT, Mediso, Budapest, Hungary). In total, seven samples from the femoral arteries of three patients with ischemic peripheral disease and three samples from native aortic valves of three patients undergoing valve replacement surgery were used. All samples were collected at the time of surgery and stored in 4% paraformaldehyde at RT until further use. All patients gave their written, informed consent. All procedures had local ethical approval (06/S0703/110, 12/WS/0227, 09/S0703/118, and 12/NW/0036). All studies were approved by East and West Scotland Research Ethics Committees, and all experiments were conducted according to the principles expressed in the Declaration of Helsinki.

[5] = 0.01 µM in high-CaP medium, replicates Fig. 3d

For COCCOCCO[C@@H]1[C@@H](OP(=O)(O)O)[C@H](OCCOCCOC)[C@@H](OP(=O)(O)O)[C@@H](OP(=O)(O)O)[C@H]1OP(=O)(O)O [(OEG2)2-IP4, 4,6-Di-O-(methoxy-diethyleneglycol)-myo-inositol-1,2,3,5-tetrakis(phosphate)], the “VSMC viability (MTS), % of medium control” value (“VSMC viability (MTS), %” below) (primary human VSMCs [1]; [5]) was 53.4% and 66.46%, the “VSMC viability (MTS), %” value (primary human VSMCs [1]; 0.1 µM in high-CaP medium) was 53.2% and 65.81% and the “VSMC viability (MTS), %” value (primary human VSMCs [1]; 1 µM in high-CaP medium) was 67.8% and 94.42% and 93.48%. For the same molecule, the “VSMC viability (MTS), %” value (primary human VSMCs [1]; 10 µM in high-CaP medium) was 90.2% and 89.04%, the “VSMC viability (MTS), %” value (primary human VSMCs [1]; 100 µM in high-CaP medium) was 91.5% and 93.79% and the “cell viability vs high-CaP medium control” value (primary human VSMCs [1]; 0.01 and 0.1 µM) was “slightly decreased”. It also gave a viability at 5 days, 0.01 µM [2, 5] of 65.9%, a viability at 5 days, 0.1 µM ([2]; 0.1 µM in high-CaP medium) of 72.3% and a viability at 5 days, 10 µM ([2]; 10 µM in high-CaP medium) of 71.1%. For the same molecule, the viability at 5 days, 100 µM ([2]; 100 µM in high-CaP medium) was 83.5%, the “VSMC viability in CPP2 setup” value (primary human VSMCs [3]) was “did not reduce VSMC viability” and the “VSMC viability (MTS), %” value (primary human VSMCs [3]; 1 µM with CPP2, replicates Fig. 3f) was 111.835% and 81.6116% and 105.448%. The “VSMC viability (MTS), %” value (primary human VSMCs [3]; 3 µM with CPP2) was 87.2434% and 103.748%, the “VSMC viability (MTS), %” value (primary human VSMCs [3]; 10 µM with CPP2) was 94.1761% and 106.452% and the “VSMC viability (MTS), %” value (primary human VSMCs [3]; 30 µM with CPP2) was 95.6307% and 101.925%. For the same molecule, the “VSMC viability (MTS), %” value (primary human VSMCs [3]; 100 µM with CPP2) was 103.228% and 101.178%, the viability at 48 h, 3 µM ([4]; 3 µM with CPP2) was 102% and the viability at 48 h, 10 µM ([4]; 10 µM with CPP2) was 104%. The viability at 48 h, 30 µM ([4]; 30 µM with CPP2) was 101%, the viability at 48 h, 100 µM ([4]; 100 µM with CPP2) was 93.7% and the IC50 (CPP2; CPP2 20 µg Ca/mL, 18F-NaF 1 nM, 1 h RT, read-out: IC50 (reduction of 18F binding to CPP)) was 0.81 µM. The IC90 (CPP2; as assessed in Fig. 2c, read-out: IC90 (concentration inhibiting 90% 18F-NaF binding)) was 8.6 µM, the IC90 (CPP2; as used for tissue explants, read-out: IC90) was 8.55 µM and the “18F-NaF percentage binding to CPP2” value (CPP2; concentration 0.75 (unit not given)) was 105.464% and 94.9958% and 112.003%. The “18F-NaF percentage binding to CPP2” value (CPP2; concentration 2.5 (unit not given)) was 107.219% and 104.697% and 115.819%, the “18F-NaF percentage binding to CPP2” value (CPP2; concentration 7.5 (unit not given)) was 94.1661% and 101.068% and 121.959% and the “18F-NaF percentage binding to CPP2” value (CPP2; concentration 25 (unit not given)) was 108.675% and 100.128% and 123.491%. The “18F-NaF percentage binding to CPP2” value (CPP2; concentration 75 (unit not given)) was 113.007% and 98.9202% and 111.871%, the “18F-NaF percentage binding to CPP2” value (CPP2; concentration 250 (unit not given)) was 85.5215% and 95.9196% and 111.875% and the “18F-NaF percentage binding to CPP2” value (CPP2; concentration 750 (unit not given)) was 70.0481% and 89.1189% and 102.542%. The “18F-NaF percentage binding to CPP2” value (CPP2; concentration 1750 (unit not given)) was 31.7703% and 41.2562% and 38.4419%, the “18F-NaF percentage binding to CPP2” value (CPP2; concentration 7500 (unit not given)) was 12.1628% and 10.8683% and 17.508% and the “18F-NaF percentage binding to CPP2” value (CPP2; concentration 25000 (unit not given)) was 16.4031% and 18.0245% and 30.0027%. The “18F-NaF percentage binding to CPP2” value (CPP2; concentration 75000 (unit not given)) was 21.5957% and 22.2508% and 37.2218%, the “18F-NaF percentage binding to CPP2” value (CPP2; concentration 250000 (unit not given)) was 17.9597% and 19.9827% and 35.4457% and the “18F-NaF percentage binding to CPP2” value (CPP2; concentration 750000 (unit not given), replicates Fig. 2c) was 28.6563% and 25.7698% and 36.7738%.

— article PMC7002685, “Inhibition of vascular calcification by inositol phosphates derivatized with ethylene glycol oligomers” (Nature Communications, 2020)
